# Experimental data published in patent EP1613294B1, “PEPTIDES AND DERIVATIVES THEREOF AS INHIBITORS OF OXIDATIVE DAMAGE OF THE SKIN” (Bottega Verde S.r.l., priority 2003, dated 2004).
# Peptide text beside a SMILES is read from it.
# Tests used:
# [1] = HNE quenching activity in homogeneous phase (HNE consumption by HPLC); format: biochemical; settings: 200 µM HNE, 37°C, average ± S.D of 4 determinations; for RESIDUAL HNE (%) 1 hr of incubation: phosphate buffer 10 mM pH 7.4, 1 hr; for RESIDUAL HNE (%) 24 hrs of incubation: phosphate buffer 10 mM pH 7.4, 24 hrs
# Source text: 4-hydroxy-trans-nonenal (HNE) was used throughout the study, as the prototype of α,β-unsaturated aldehydes since it represents the main oxidative degradation product of ω-6 polyunsaturated fatty acids, such as arachidonic and linoleic acids, and it is formed in large amount in the skin under different patho-physiological conditions, such as intrinsic and photo-induced skin aging [Tanaka N, Arch Dermatol Res, 293, 363-367, 2001].
# A homogeneous phase model was first used to evaluate the ability of H-His-Tyr-OH and H-Tyr-His-OH to react and deactivate the cytotoxic agent HNE (quenching activity). In particular, the di-peptides were incubated at 37°C in a phosphate buffer, 10 mM pH 7.4, in the presence of 200 µM HNE. HNE consumption was determined after 1 hour and 24 hours of incubation by HPLC analysis, under the following experimental conditions: HP1050 (Hewlett Packard, Milano, Italy) equipped with a quaternary pump, self-sampling, on-line degasser, UV/VIS photodiode detector. The separations were performed by means of a Supelco LC18 column (25 cm x 4.6 mm i.d.; particle size 5 µm) and an isocratic elution system: 60% of phase A (H2O/CH3CN/HCOOH 90/1.0/0.] v/v/v) and 40% of phase B (H2O/CH3CN 10/90 v/v/v).
# The values are expressed as the average ± S.D of 4 determinations.
# [2] = Antioxidant activity, fluorimetric assay of R-Phicoerytrine (RPE) oxidation by AAPH-generated peroxyl radicals; format: biochemical; settings: substance at 25 µM; average ± S.D of 4 determination
# Protocol: The amount of RPE oxidation is determined by fluorimetric analysis and the results are expressed as Trolox equivalents (reference compound).
# (the hydrophilic analogue of vitamin E).
# The values are the average ± S.D of 4 determination
# [3] = system: keratinocytes (NCTC 2544 human cell line); experiment: Cytoprotection of keratinocytes exposed to UVB and HNE (morphology, cell viability by calcein assay); format: cell-based; settings: for protective effect (morphological analyses and recovery in cell viability): added to incubation medium concomitant to HNE and UVB exposure, result in words
# Protocol: The experimental model involves the exposure of the cellular mono-layer to the minimal UVB erythematal dose, MED=50 mJ/cm^2, (Vilber Lourmat VLX-3W radiometer equipped with a UVB probe at 312 nm)and, 4 hours of post-incubation, to the HNE insult (70 nmoles/mg protein).
# The combination of physical (UVB) and chemical (HNE) stress is used to simulate the conditions of cellular damage of the skin during the cutaneous intrinsic and photo-induced aging process.
# [4] = system: human kcratinocytcs cell line (NCTC 2544 human cell line); experiment: Antioxidant cell protection of keratinocytes against AAPH-induced oxidative damage (MTT, morphology, lipid peroxidation with BODIPY 581/591); format: cell-based; settings: 6 hours exposure to 40 mM AAPH
# Protocol: The H-His-Tyr-OH and H-Tyr-His-OH antioxidant activity was subsequently devaluated in a cellular model using human kcratinocytcs cell line (NCTC 2544 human cell line, Flow Laboratories, Irvine, UK), subjected to oxidative damage induced by a flux of peroxyl radicals generated by the radical initiator 2,2'-azobis([…]) dihydrochloride (AAPH). The following parameters were evaluated as markers of cellular damage: mitochondrial functionality as an index of cell viability (MTT assay), cellular morphology (phase contrast microscopic examinations), and lipid peroxidation, using 4,4-difluoro-5-(4-phenyl-1,3-butadienyl)-4-bora-3a,4a-diazo-s-indacene-3-undecanoic acid(BODIPY 581/591) as membrane fluorescent probe [Pap et al, FEBS Lett. 453:278-282, 1999]. A dramatic cytotoxic effect was observed after 6 hours exposure to 40 mM AAPH(fig.5).
# The addition of H-His-Tyr-OH to the incubation medium causes a significant and dose-dependent cell protection, which is significant for all the parameters considered, already at 0.5 mM, with a total protection at 10 mM (fig. 5).
# [5] = Copper (II) chelation by spectrophotometric analysis; format: physicochemical; settings: phosphate buffer (1 mM), 37°C, 1 mM copper sulphate (1:1 molar ratio); free copper (II) band at 800 nm disappears
# Protocol: For this purpose, first we evaluated the ability of H-His-Tyr-OH and H-Tyr-His-OH to chelate copper (II) by spectro-photometric analysis. The peptides are dissolved in phosphate buffer (1 mM) and incubated at 37°C with 1 mM copper sulphate (1:1 molar ratio).
Structure (SMILES),RESIDUAL HNE (%) 1 hr of incubation [1] [%],RESIDUAL HNE (%) 24 hrs of incubation [1] [%],TROLOX equivalent [2] [µM],"EC100 ([3]; Homo sapiens, NCTC-2544, light or radiation study, UVB 50 mJ/cm^2 + HNE 70 nmoles/mg protein, determined 6 hours after the addition of HNE, read-out: concentration at which cells are completely protected (morphological analysis)) [µM]","minimal effective concentration ([3]; Homo sapiens, NCTC-2544, light or radiation study, UVB 50 mJ/cm^2 + HNE 70 nmoles/mg protein, determined 6 hours after the addition of HNE, read-out: concentration at which the cytoprotective activity is already significant) [µM]",protective effect (morphological analyses and recovery in cell viability) [3],"minimal effective concentration ([4]; mitochondrial functionality, morphology, lipid peroxidation, read-out: concentration at which cell protection is already significant for all the parameters considered) [µM]",EC100 ([4]; read-out: concentration giving total protection) [µM],λmax of the absorption band of the peptide-copper(II) complex [5] [nm]
"N=C(N)NN [Amino guanidine, reference compound]",95.31 ± 0.08,72.04 ± 3.97,–,–,–,–,–,–,–
"NCCC(=O)N[C@@H](Cc1cnc[nH]1)C(=O)O [Carnosine, reference compound]",–,–,4.94 ± 0.3,–,–,–,–,–,–
NC(Cc1cnc[nH]1)C(=O)NC(Cc1ccc(O)cc1)C(=O)O (stereo not drawn) [H-His-Tyr-OH] (H-His-Tyr-OH; configuration not given here),80.16 ± 7.57,15.41 ± 0.49,16.90 ± 0.54,20000,2000,dose-dependent protective effect,500,10000,650
NC(Cc1ccc(O)cc1)C(=O)NC(Cc1cnc[nH]1)C(=O)O (stereo not drawn) [H-Tyr-His-OH] (H-Tyr-His-OH; configuration not given here),85.31 ± 6.29,20.02 ± 4.09,17.28 ± 0.89,–,–,dose-dependent protective effect,–,–,600
"Cc1c(C)c2c(c(C)c1O)CCC(C)(C(=O)O)O2 (stereo not drawn) [Trolox, reference compound]",–,–,25,–,–,–,–,–,–
